Values of other authors in patent publication US20010009917A1, “Methods and compositions for treating asthma, atherosclerosis and inflammatory diseases using optically pure (-zileuton” (priority 1993, published 2001).

Key:
LTB4 = conditions: human volunteers, 800 mg p.o. twice per day for four weeks
[1] = target: T1, human platelet 12-lipoxygenase (Homo sapiens, UniProt P18054)
T1 construct: the supernatant containing the 12-lipoxygenase activity stored frozen until used; from tissue; host or cells: human platelets, sonicated lysate supernatant
T1 sequence (P18054 1-663): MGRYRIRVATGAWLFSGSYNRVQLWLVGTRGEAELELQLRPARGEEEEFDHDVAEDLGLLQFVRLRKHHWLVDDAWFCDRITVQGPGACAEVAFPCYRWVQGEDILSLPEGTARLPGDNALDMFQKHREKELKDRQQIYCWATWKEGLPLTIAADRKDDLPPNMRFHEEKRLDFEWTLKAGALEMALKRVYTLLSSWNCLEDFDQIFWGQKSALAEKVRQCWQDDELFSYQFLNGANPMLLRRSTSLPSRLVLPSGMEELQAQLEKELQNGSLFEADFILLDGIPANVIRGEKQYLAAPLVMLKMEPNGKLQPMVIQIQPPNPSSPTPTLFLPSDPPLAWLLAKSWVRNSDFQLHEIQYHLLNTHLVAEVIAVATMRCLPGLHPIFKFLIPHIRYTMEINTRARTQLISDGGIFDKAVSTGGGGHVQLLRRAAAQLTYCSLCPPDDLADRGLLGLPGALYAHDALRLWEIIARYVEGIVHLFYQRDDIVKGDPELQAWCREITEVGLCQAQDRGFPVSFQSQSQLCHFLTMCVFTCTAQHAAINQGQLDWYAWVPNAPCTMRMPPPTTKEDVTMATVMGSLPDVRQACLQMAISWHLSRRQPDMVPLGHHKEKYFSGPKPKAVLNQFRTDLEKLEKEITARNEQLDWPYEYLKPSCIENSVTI

[2] = target: T2, sheep seminal vesicle cyclooxygenase (Ovis aries, UniProt P05979)
T2 construct: incubations with sheep seminal vesicle gland microsomes (2 mg/mL); from tissue; host or cells: sheep seminal vesicle gland microsomes
T2 sequence (P05979 25-600): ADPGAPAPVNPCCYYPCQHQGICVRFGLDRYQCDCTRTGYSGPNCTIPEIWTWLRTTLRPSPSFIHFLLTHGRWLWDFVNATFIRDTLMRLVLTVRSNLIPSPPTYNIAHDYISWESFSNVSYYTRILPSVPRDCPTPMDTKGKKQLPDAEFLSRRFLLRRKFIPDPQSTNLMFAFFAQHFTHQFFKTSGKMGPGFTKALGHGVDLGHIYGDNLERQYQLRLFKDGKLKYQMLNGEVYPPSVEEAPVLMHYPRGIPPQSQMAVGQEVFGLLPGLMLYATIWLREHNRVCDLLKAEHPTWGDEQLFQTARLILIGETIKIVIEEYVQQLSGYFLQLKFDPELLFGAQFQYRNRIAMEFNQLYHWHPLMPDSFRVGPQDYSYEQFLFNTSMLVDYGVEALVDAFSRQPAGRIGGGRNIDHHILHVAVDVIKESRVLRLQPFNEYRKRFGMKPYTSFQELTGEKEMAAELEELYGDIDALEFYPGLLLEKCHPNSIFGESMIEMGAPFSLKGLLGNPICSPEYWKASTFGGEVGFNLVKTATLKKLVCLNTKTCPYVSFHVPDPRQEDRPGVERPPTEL

[3] = dog liver microsomes

For `CC(C)NC[C@H](O)COc1cccc2ccccc12` [propranolol], the “potency relative to the D-enantiomer” value (beta-adrenergic) is listed as 100 times.
In the case of `CC(c1cc2ccccc2s1)N(O)C(N)=O` (racemic) [racemic zileuton, N-(1-benzo[b]thien-2-ylethyl)-N-hydroxyurea], the “decreases in LTB4” value (LTB4) is given as 75 to 85%, the “patients reporting an adverse event during the four week trial” value (four week trial) is given as “One hundred” and the “improvement in symptoms of rheumatoid arthritis” value (human volunteers, 800 mg p.o. twice per day for four weeks) is given as “statistically significant improvement”. For the same compound, the “inhibitory effect on human platelet 12-lipoxygenase” value [1] was “little inhibitory effect” and the “inhibitory effect on sheep seminal vesicle cyclooxygenase” value [2] was “little inhibitory effect”.
In the case of `C[C@H](c1cc2ccccc2s1)N(O)C(N)=O` [(+)-zileuton, (+) isomer of N-(1-benzo[b]thien-2-ylethyl)-N-hydroxyurea], the “effect on glucuronidation of S-(−)-zileuton” value [3] is given as “enhancement of that reaction”.
In the case of `C[C@@H](c1cc2ccccc2s1)N(O)C(N)=O` [S-(−)-zileuton], the glucuronidation [3] is given as “selective glucuronidation”.
